Data: patent US8847018B2, “Plants tolerant to HPPD inhibitor herbicides” (Bayer CropScience AG, priority 2009, dated 2014)
Where two headings read alike, the source gives them in different places.

What was measured:
[1] = tested on: Rhodococcus HPPD SEQ ID No. 19 (FMP23e); assay: HPLC assay of HPPD in vitro kinetic properties; format: biochemical, Rhodococcus sp. (strain RHA1), isolate ro02040; details: substrate HPP, 10 to 400 μM; SEQ ID No. 19
[2] = biological target: T1, Arabidopsis thaliana HPPD SEQ ID No. 10 (Arabidopsis thaliana, UniProt P93836); assay: HPLC assay of HPPD in vitro kinetic properties; details: substrate HPP, 10 to 400 μM; SEQ ID No. 10
T1 sequence (P93836 with tags, fused parts or gaps): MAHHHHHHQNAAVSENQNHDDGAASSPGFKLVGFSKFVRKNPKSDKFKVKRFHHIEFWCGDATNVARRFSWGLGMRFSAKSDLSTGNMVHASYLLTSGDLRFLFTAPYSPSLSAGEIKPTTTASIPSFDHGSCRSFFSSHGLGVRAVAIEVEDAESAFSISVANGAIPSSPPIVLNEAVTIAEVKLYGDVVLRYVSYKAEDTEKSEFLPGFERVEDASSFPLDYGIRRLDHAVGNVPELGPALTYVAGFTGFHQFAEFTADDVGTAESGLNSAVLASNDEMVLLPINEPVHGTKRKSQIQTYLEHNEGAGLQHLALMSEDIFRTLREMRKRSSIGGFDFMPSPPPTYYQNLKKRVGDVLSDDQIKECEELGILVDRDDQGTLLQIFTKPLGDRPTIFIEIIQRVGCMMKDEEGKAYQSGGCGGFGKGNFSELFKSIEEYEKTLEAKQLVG
Description: All assays were started by the addition of HPPD enzyme to the assay mixture and stopped at a series of times between 0 and 240 s by addition of 200 μl of the reaction mixture to reaction assay tubes containing 20 μl 10% perchloric acid. Precipitated protein was pelleted by a 5 minute centrifugation at 10,000 g. […] For Km and Vmax value determinations the initial rates of the HPPD reaction at different substrate concentrations were determined from plots of HGA formed versus time and fitted to the Michaelis-Menten equation for unireactant enzymes using the ID Business Solutions Ltd. (idbs.com) XLfit software suite.

(UniProt Q0SF39) [3] = assay: biochemical; format: biochemical, Rhodococcus sp. (strain RHA1), isolate ro02040; details: read-out: pI50 (converted)
[4] = tested on: Rhodococcus HPPD SEQ ID No. 19 (FMP23e); assay: biochemical; format: biochemical, Rhodococcus sp. (strain RHA1), isolate ro02040
[5] = tested on: Rhodococcus HPPD SEQ ID No. 5 (FMP22e); assay: biochemical; format: biochemical, Rhodococcus sp. (strain RHA1), isolate ro03041
(UniProt Q0SC92) = assay: biochemical; format: biochemical, Rhodococcus sp. (strain RHA1), isolate ro03041; details: read-out: pI50 (converted)
(UniProt Q0SF39) [6] = assay: HPLC assay of HPPD in vitro kinetic properties; format: biochemical, Rhodococcus sp. (strain RHA1), isolate ro02040
[7] = biological target: T1, Arabidopsis thaliana HPPD SEQ ID No. 10; assay: HPPD activity in presence of HPPD inhibitors (pI50, % inhibition); format: biochemical; set-up: made in house; host or cells: E. coli K-12 BL21 (pQE30-AtHPPD)
[8] = tested on: T1 tobacco plants carrying FMP22e; assay: Response to bicyclopyrone, T1 tobacco classified by injury; format: in vivo, Nicotiana tabacum; details: 100 g AI/ha, 7 DAT; for Class I (number of plants): injury: 0-30%; for Class II (number of plants): injury: 31-100%
Excerpt: (§1) Seeds of wild type tobacco plants and T1 tobacco plants carrying the gene from Rhodococcus sp. (strain RHA1), isolate ro03041 FMP22e coding for HPPD FMP22 or plants carrying the gene from Rhodococcus sp. (strain RHA1) isolate ro02040 FMP23e coding for HPPD FMP23 were sown on MS media (Murashige and Skoog […]) supplemented with […] kanamycin. After 4 weeks, rooted green plantlets were transferred to soil and grown for 3 weeks in the glasshouse as described above then sprayed with a mixture containing bicyclopyrone (100 g Al/ha), ammonium sulfate and methyl ester raps oil. The plants were classified in two categories based on the phenotype developed in response to the herbicide seven days after the treatment. […] In this case, only plants containing at least one T-DNA were exposed to the herbicidal treatment.

[9] = tested on: T1 tobacco plants carrying FMP23e; assay: as above; format: in vivo, Nicotiana tabacum; details: 100 g AI/ha, 7 DAT, FMP23e line 188
Excerpt: as §1

Wild type tobacco plants = assay: as above; format: in vivo, Nicotiana tabacum; details: 100 g AI/ha, 7 DAT, line WT
Excerpt: as §1

[10] = tested on: tobacco plants containing Arabidopsis HPPD; assay: Glasshouse trial, herbicidal damage on T1 tobacco; format: in vivo, Nicotiana tabacum; details: 7 DAT, 100 g AI/ha spray; Arabidopsis HPPD line 258, single T1 plants
Description: T0 Tobacco plants containing either the gene from Arabidopsis coding for HPPD or the gene FMP22e from Rhodococcus sp. (strain RHA1), isolate ro03041 coding for FMP22 HPPD, or the gene FMP23e from Rhodococcus sp. (strain RHA1), isolate ro02040 mentioned above (Example 3), were transferred to the glasshouse (28/20° C.), to develop further and produce seeds. Those seeds were harvested and put on soil (ED73 mixed with sand and osmocote Pro) to germinate in the glasshouse (28/20° C.). Three to four weeks later, plantlets were transferred to single pots containing the soil mentioned above. Two weeks later, plants of a size 4-6 cm diameter were sprayed with either • tembotrione at 100 gAl/ha prepared from a WP20 (wettable powder 20%) formulation supplemented with ammonium sulfate and methyl ester raps oil, or • isoxaflutole at 100 gAl/ha prepared from a WP20 formulation supplemented with ammonium sulfate and methyl ester raps oil, or • bicyclopyrone at 100 gAl/ha prepared from a WP20 formulation supplemented with ammonium sulfate and methyl ester raps oil, or • “blind formulation” made from a WP20 formulation without active ingredient (Al) supplemented with ammonium sulfate and methyl ester raps oil, and were then transferred to a growth chamber with adequate light conditions (20000 Lux).

[11] = tested on: transgenic soybean shoots, FMP23t-h; assay: Soybean shoot greening on isoxaflutole selection; format: cell-based; details: isoxaflutole as selection marker
Excerpt: (§2) Soybean transformation is achieved using methods well known in the art, such as the one described using the Agrobacterium tumefaciens mediated transformation soybean half-seed explants described by Paz et al. (2006, Plant cell Rep. 25:206). Transformants were identified using Isoxaflutole as selection marker. The appearance of green shoots was observed, and documented as an indicator of tolerance to the herbicide isoxaflutole.

wild-type soybean shoots = assay: Soybean shoot greening on isoxaflutole selection; format: cell-based; details: same amount of isoxaflutole
Excerpt: as §2

[12] = tested on: transgenic soybean shoots, FMP22t-h; assay: Soybean shoot greening on isoxaflutole selection; format: cell-based; details: isoxaflutole as selection marker
Excerpt: as §2

[13] = SEQ ID No. 19, 5.0 × 10^−6 M inhibitor
[14] = SEQ ID No. 5, 5.0 × 10^−6 M inhibitor

Structure (SMILES): O=C(O)C(=O)Cc1ccc(O)cc1 [HPP, para-hydroxyphenylpyruvate]
- Km [1]: 35 µM
- Vmax [1]: 1.1 µM
- Km [2]: 6.3 µM
- Vmax [2]: 1.2 µM

Structure (SMILES): CS(=O)(=O)c1cc(C(F)(F)F)ccc1C(=O)C(C#N)C(=O)C1CC1 (stereo not drawn) [Diketonitrile, 2-cyano-3-cyclopropyl-1-(2-methylsulphonyl-4-trifluoromethylphenyl)-propane-1,3-dione]
- IC50 ((UniProt Q0SF39) [3]): 25.1 µM
- percentage of inhibition compared to activity in absence of the inhibitor [4, 13]: 11%
- percentage of inhibition compared to activity in absence of the inhibitor [5, 14]: 27%
- IC50 ((UniProt Q0SC92)): 15.8 µM
- Ki ((UniProt Q0SF39) [6]): 3.6 µM

Structure (SMILES): Cc1nn(C)c(O)c1C(=O)c1ccc(C(F)(F)F)cc1S(C)(=O)=O [Pyrasulfotole]
- pI50 ([4]; SEQ ID No. 19, 2 mM HPP, 3 minutes incubation): 4.1
- percentage of inhibition compared to activity in absence of the inhibitor [4, 13]: 2%
- pI50 ([5]; SEQ ID No. 5, 2 mM HPP, 3 minutes incubation): 4.0
- percentage of inhibition compared to activity in absence of the inhibitor [5, 14]: 0%
- pI50 ([7]; 2 mM HPP, 3 minutes incubation): 5.4
- percentage of inhibition compared to activity in absence of the inhibitor ([7]; 5.0 × 10^−6 M inhibitor): 69%

Structure (SMILES): CS(=O)(=O)c1ccc(C(=O)C2C(=O)CCCC2=O)c(Cl)c1COCC1CCCO1 (stereo not drawn) [Tefuryltrione, 2-[2-chloro-4-(methylsulfonyl)-3-[[(tetrahydro-2-furanyl)methoxy]methyl]benzoyl]-1,3-cyclohexanedione]
- IC50 ((UniProt Q0SF39) [3]): 2.51 µM
- percentage of inhibition compared to activity in absence of the inhibitor [4, 13]: 65%
- percentage of inhibition compared to activity in absence of the inhibitor [5, 14]: 43%
- IC50 ((UniProt Q0SC92)): 6.31 µM

Structure (SMILES): CS(=O)(=O)c1ccc(C(=O)C2C(=O)CCCC2=O)c([N+](=O)[O-])c1 [Mesotrione, 2-[4-(methylsulfonyl)-2-nitrobenzoyl]-1,3-cyclohexanedione]
- percentage of inhibition compared to activity in absence of the inhibitor [4]: 67%
- percentage of inhibition compared to activity in absence of the inhibitor [5]: 54%

Structure (SMILES): CS(=O)(=O)c1ccc(C(=O)C2C(=O)CCCC2=O)c(Cl)c1 [Sulcotrione, 2-[2-chloro-4-(methylsulfonyl)benzoyl]-1,3-cyclohexanedione]
- pI50 [4]: 5.5
- percentage of inhibition compared to activity in absence of the inhibitor [4]: 73%
- pI50 [5]: 5.3

Structure (SMILES): COCCOCc1nc(C(F)(F)F)ccc1C(=O)C1=C(O)C2CCC(C2)C1=O (stereo not drawn) [Bicyclopyrone, 4-hydroxy-3-[[2-[(2-methoxyethoxy)methyl]-6-(trifluoromethyl)-3-pyridinyl]carbonyl]bicyclo[3.2.1]oct-3-en-2-one]
- IC50 ((UniProt Q0SF39) [3]): 63.1 µM
- percentage of inhibition compared to activity in absence of the inhibitor [4, 13]: 1%
- % of tolerant plant ([8]; FMP22e line 64): >50%
- Class I (number of plants) ([8]; FMP22e line 64): >100
- Class II (number of plants) ([8]; FMP22e line 64): 104
- % of tolerant plant ([8]; FMP22e line 65): 64%
- Class I (number of plants) ([8]; FMP22e line 65): 86
- Class II (number of plants) ([8]; FMP22e line 65): 48
- % of tolerant plant ([8]; FMP22e line 163): 50%
- Class I (number of plants) ([8]; FMP22e line 163): 45
- Class II (number of plants) ([8]; FMP22e line 163): 46
- % of tolerant plant [9]: 59%
- Class I (number of plants) ([9]; injury: 0-30%): 100
- Class II (number of plants) ([9]; injury: 31-100%): 70
- % of tolerant plant (Wild type tobacco plants): 0%
- Class I (number of plants) (Wild type tobacco plants; Class I: no to light injuries (injury: 0-30%)): 0
- Class II (number of plants) (Wild type tobacco plants; Class II: strong injuries (injury: 31-100%)): 12
- percentage of inhibition compared to activity in absence of the inhibitor [5, 14]: 0%
- IC50 ((UniProt Q0SC92)): 126 µM

Structure (SMILES): CS(=O)(=O)c1cc(C(F)(F)F)ccc1C(=O)c1cnoc1C1CC1 [Isoxaflutole, (5-cyclopropyl-4-isoxazolyl)[2-(methylsulfonyl)-4-(trifluoromethyl)phenyl]methanone]
- % injury [10]: 100%
- transgenic tested shoots showing normal greening [11]: 1.9%
- appearance of shoots treated with isoxaflutole (wild-type soybean shoots): entirely bleached
- transgenic tested shoots showing normal greening [12]: 1.8%

Structure (SMILES): Cc1ccc(C(=O)COc2c(C(=O)c3ccc(Cl)c(C)c3Cl)c(C)nn2C)cc1 [Benzofenap]
- IC50 ((UniProt Q0SF39) [3]): 2.51 µM
- percentage of inhibition compared to activity in absence of the inhibitor [4, 13]: 72%
- percentage of inhibition compared to activity in absence of the inhibitor [5, 14]: 57%
- IC50 ((UniProt Q0SC92)): 3.98 µM
